# Reference: PMC11289893 (RSC Chemical Biology, 2024)
# System: HeLa cells
# Assay: Cell proliferation
# Assay type: cell-based
# Details: tested concentrations 0 to 20 μM
smiles,measurement,value
COC[C@H]1OC(=O)c2coc3c2[C@@]1(C)C1=C(C3=O)[C@@H]2CCC(=O)[C@@]2(C)C[C@H]1OC(C)=O [Wortmannin],cytotoxicity in HeLa cells,did not observe Wortmannin cytotoxicity
